Reference: PubChem BioAssay (NCI)
Several values for one entry are separate records, joined by “and”; a condition that tells them apart may be missing. Equal entries are not always repeated.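 Where inhibition never reached the appropriate level, the endpoint shown equals the highest concentration tested. Otherwise, values were interpolated linearly from a five-concentration, 48-hour dose response in 96-well plates. GI50 marks 50% less growth. TGI is the concentration that stops growth completely.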

Tests used:
Assay in all cases: growth of human tumour cells (NCI), 48 h
786-0 renal = test system: 786-0 renal
NCI-H460 lung = test system: NCI-H460 lung
NCI/ADR-RES ovarian = test system: NCI/ADR-RES ovarian
OVCAR-3 ovarian = test system: OVCAR-3 ovarian
OVCAR-4 ovarian = test system: OVCAR-4 ovarian
OVCAR-5 ovarian = test system: OVCAR-5 ovarian
PC-3 prostate = test system: PC-3 prostate
SF-539 CNS = test system: SF-539 CNS
SK-MEL-5 melanoma = test system: SK-MEL-5 melanoma
TK-10 renal = test system: TK-10 renal

Structure (SMILES)	GI50 (786-0 renal)	TGI (786-0 renal)	GI50 (NCI-H460 lung)	TGI (NCI-H460 lung)	GI50 (NCI/ADR-RES ovarian)	TGI (NCI/ADR-RES ovarian)	GI50 (OVCAR-3 ovarian)	TGI (OVCAR-3 ovarian)	GI50 (OVCAR-4 ovarian)	TGI (OVCAR-4 ovarian)	GI50 (OVCAR-5 ovarian)	TGI (OVCAR-5 ovarian)	GI50 (PC-3 prostate)	TGI (PC-3 prostate)	GI50 (SF-539 CNS)	TGI (SF-539 CNS)	GI50 (SK-MEL-5 melanoma)	TGI (SK-MEL-5 melanoma)	GI50 (TK-10 renal)	TGI (TK-10 renal)
Cc1cn2c(/C=C3/C(=O)Nc4ccc(F)cc43)c(C)nc2s1	14.4 µM	> 50 µM	2.4 µM	> 50 µM	1.7 µM	7.26 µM	3.5 µM	> 50 µM	12.6 µM	> 50 µM	14.6 µM	> 50 µM	9.51 µM	> 50 µM	7.29 µM	18.4 µM	2.31 µM	9.61 µM	22.2 µM	> 50 µM
COc1ccc(CNc2cnc3cc(N)cc(N)c3n2)cc1	17.2 µM	31.6 µM	33.8 µM	> 100 µM	25.5 µM	76.2 µM	24.5 µM	> 100 µM	64.5 µM	> 100 µM	18.1 µM	43.6 µM	34.2 µM	> 100 µM	21.7 µM	39.4 µM	18.9 µM	35.2 µM	27 µM	64.2 µM
CC[C@@H](C)Nc1cc(C(=O)NC2CC3CCC(C2)N3c2ccc(C(=O)C3CC3)cn2)c(C)cc1C(N)=O (some centres undefined)	0.152 µM	> 100 µM	0.0299 µM	> 54.2 µM	1.06 µM	> 100 µM	0.0672 µM	> 88.1 µM	1.31 µM	> 100 µM	0.0706 µM	> 100 µM	0.0469 µM	> 100 µM	0.0679 µM	> 100 µM	0.0599 µM	8.35 µM	0.0387 µM	89 µM
CC(C)(C)NC/C(=C\c1ccccc1)C(=O)c1ccccc1	1.95 µM	4.01 µM	1.88 µM	4.57 µM	2.31 µM	10.8 µM	1.19 µM	3.19 µM	5.6 µM	19.6 µM	2.33 µM	4.48 µM	3.44 µM	13 µM	3.01 µM	7.2 µM	1.53 µM	2.91 µM	0.94 µM	2.28 µM
O=S(=O)(Nc1ccc2ccccc2c1)c1ccc(-c2cnc(C3CC3)o2)cc1	3.1 µM	18.7 µM	0.56 µM	10.9 µM	0.713 µM	5.81 µM	0.435 µM	5.37 µM	3.22 µM	79.9 µM	3.01 µM	23.4 µM	1.69 µM	19.1 µM	1.17 µM	3.92 µM	0.829 µM	12.7 µM	5.81 µM	> 100 µM
O=C(Cn1c(C(=O)c2ccccc2)nc2ccccc21)c1ccc(F)cc1	20.8 µM	> 100 µM	12 µM	> 76 µM	3.47 µM	> 29.4 µM	3.39 µM	> 25.5 µM	24.6 µM	> 100 µM	> 100 µM	> 100 µM	13.6 µM	> 100 µM	16 µM	> 100 µM	4.13 µM	> 82.2 µM	14.2 µM	> 100 µM
Nc1nc(N)c(N=Nc2ccc(C(=O)O)c(O)c2)c(N)n1		> 100 µM		> 100 µM		> 100 µM		53.8 µM		35.1 µM		> 100 µM		> 100 µM		> 100 µM		> 100 µM		> 100 µM
CCN(CC)CC(C)(C)C(=O)/C=C/c1ccc(/C=C/C(=O)C(C)(C)CN(CC)CC)cc1		0.411 µM		0.755 µM		6.59 µM		1.76 µM				2.93 µM		1.51 µM		2.54 µM		3.7 µM		2.49 µM
NC(=Nc1nc(-c2ccccn2)cc2ccccc12)c1ccccn1	0.0177 µM		0.099 µM		0.0434 µM		0.00188 µM	> 100 µM	0.0798 µM		0.176 µM	> 100 µM	0.0545 µM	> 100 µM	0.189 µM	0.743 µM and 2.08 µM	0.0462 µM	> 78.1 µM	0.198 µM	> 100 µM
CC1CC(C)C2=NOS3=C2C1=NO3 (centres undefined)		> 100 µM		> 100 µM		> 100 µM		> 100 µM		> 100 µM		> 100 µM		> 100 µM		> 100 µM		> 100 µM		> 100 µM
Cc1nnc(-c2ccc(C)c(-c3ccc(C(=O)NCc4ccc(Cl)cc4)cc3)c2)o1	18.7 µM	> 25 µM	11.9 µM	> 25 µM	9.04 µM	> 25 µM	11.6 µM	> 25 µM	3.41 µM	16.4 µM	> 25 µM	> 25 µM	8.82 µM	> 25 µM	> 22.7 µM	> 25 µM	3.97 µM	9.53 µM	> 15.7 µM	> 25 µM
COc1ccc2c(c1)N(CCO)C1=C(C(=O)OC1)C2c1ccccc1 (centres undefined)	2.7 µM	> 50 µM	1.77 µM	12.5 µM	0.992 µM	2.66 µM	1.18 µM	2.47 µM	3.69 µM	> 50 µM	3.77 µM	> 50 µM	1.75 µM	> 50 µM			1.58 µM	8.83 µM	2.11 µM	> 50 µM
CC(=O)C1CCC2C3CC=C4CC(SC(=N)N)CCC4(C)C3CCC12C (centres undefined)	1.64 µM	3.29 µM	1.58 µM	3.09 µM	2 µM	5.28 µM			1.85 µM	4.8 µM	2.43 µM	8.87 µM	1.55 µM	4.2 µM	1.87 µM	3.96 µM	1.65 µM	3.01 µM	1.69 µM	3.17 µM
CCc1nc2cc(/C=C/C(=O)NO)ccc2c(=O)n1CCc1ccc(F)cc1	1.76 µM	3.89 µM	1.08 µM	3.82 µM	0.577 µM	3.15 µM			2.34 µM	> 100 µM	2.19 µM	> 100 µM	2.92 µM	> 100 µM	1.73 µM	5.53 µM	0.903 µM	2.21 µM	1.42 µM	4.89 µM
